One experiment concerns the target T1, human plasma kallikrein (Homo sapiens, UniProt P03952).
T1 construct: purchased Kordia
Kind of experiment: Determination of the plasma kallikrein activity (fluorogenic peptide substrate, AMC cleavage). The experiment is classed as biochemical. The note with it: plasma kallikrein from Kordia 0.6 nM; substrate H-Pro-Phe-Arg-AMC 10 μM; 30 min at 22° C.; in some cases averages from multiple determinations. The method, then: To determine the plasma kallikrein inhibition of the substances according to the invention, a biochemical test system is used which utilizes the reaction of a peptidic plasma kallikrein substrate to determine the enzymatic activity of human plasma kallikrein. Here, plasma kallikrein cleaves from the peptic plasma kallikrein substrate the C-terminal aminomethylcoumarin (AMC), the fluorescence of which is measured. The determinations are conducted in microtitre plates.
Test substances are dissolved in dimethyl sulfoxide and serially diluted in dimethyl sulfoxide (3000 μM to 0.0078 μM; resulting final concentrations in the test: 50 μM to 0.00013 μM). 1 μl of the diluted substance solutions is placed into each of the wells of white microtitre plates from Greiner (384 wells). 20 μl of assay buffer (50 mM Tris/HCl pH 7.4; 100 mM sodium chloride solution; 5 mM calcium chloride solution; 0.1% of bovine serum albumin) and 20 μl of plasma kallikrein from Kordia (0.6 nM in assay buffer) are then added successively. After 15 min of incubation, the enzyme reaction is started by addition of 20 μl of the substrate H-Pro-Phe-Arg-AMC dissolved in assay buffer (10 μM in assay buffer) from Bachem, the mixture is incubated at room temperature (22° C.) for 30 min and fluorescence is then measured (excitation: 360 nm, emission: 460 nm). The measured emissions of the test batches with test substance are compared to those of control batches without test substance (only dimethyl sulfoxide instead of test substance in dimethyl sulfoxide), and IC50 values are calculated from the concentration/activity relationships. Activity data from this test are given in Table B below (in some cases as averages from multiple individual determinations): […]

The target of a further experiment is T2, human factor XIa (Homo sapiens, UniProt P03951).
T2 construct: purchased Kordia
As to the kind of experiment: Measurement of FXIa inhibition (fluorogenic peptide substrate, AMC cleavage). The experiment is classed as biochemical. The note with it: factor XIa from Kordia 0.45 nM; substrate Boc-Glu(OBzl)-Ala-Arg-AMC 10 μM; 30 min at 22° C.; in some cases averages from multiple determinations. Here is the method:
The factor XIa inhibition of the substances according to the invention is determined using a biochemical test system which utilizes the reaction of a peptidic factor XIa substrate to determine the enzymatic activity of human factor XIa. Here, factor XIa cleaves from the peptic factor XIa substrate the C-terminal aminomethylcoumarin (AMC), the fluorescence of which is measured. The determinations are conducted in microtitre plates.
Test substances are dissolved in dimethyl sulfoxide and serially diluted in dimethyl sulfoxide (3000 μM to 0.0078 μM; resulting final concentrations in the test: 50 μM to 0.00013 μM). 1 μl of the diluted substance solutions is placed into each of the wells of white microtitre plates from Greiner (384 wells). 20 μl of assay buffer (50 mM of Tris/HCl pH 7.4; 100 mM of sodium chloride; 5 mM of calcium chloride; 0.1% of bovine serum albumin) and 20 μl of factor XIa from Kordia (0.45 nM in assay buffer) are then added successively. After 15 min of incubation, the enzyme reaction is started by addition of 20 μl of the factor XIa substrate Boc-Glu(OBzl)-Ala-Arg-AMC dissolved in assay buffer (10 μM in assay buffer) from Bachem, the mixture is incubated at room temperature (22° C.) for 30 min and fluorescence is then measured (excitation: 360 nm, emission: 460 nm). The measured emissions of the test batches with test substance are compared to those of control batches without test substance (only dimethyl sulfoxide instead of test substance in dimethyl sulfoxide), and IC50 values are calculated from the concentration/activity relationships. Activity data from this test are given in Table A below (in some cases as averages from multiple individual determinations): […]

Data on 18 compounds can be found in patent publication US20180250280A1 (BAYER PHARMA AKTIENGESELLSCHAFT, priority 2015, published 2018).

pIC50: −log10 of the molar value.

By pIC50 is commonly meant the negative decadic logarithm of the IC50, by convention in mol/L.

T2 sequence (P03951 388-625 limits assumed): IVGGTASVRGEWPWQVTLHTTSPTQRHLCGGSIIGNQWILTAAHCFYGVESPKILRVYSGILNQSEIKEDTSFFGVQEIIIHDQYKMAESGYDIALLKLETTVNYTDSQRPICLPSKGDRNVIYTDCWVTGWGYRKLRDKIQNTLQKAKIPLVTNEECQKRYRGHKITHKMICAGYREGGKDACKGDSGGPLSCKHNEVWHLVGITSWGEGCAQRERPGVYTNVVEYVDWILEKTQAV
T2 sequence (P03951 19-387 partner limits assumed): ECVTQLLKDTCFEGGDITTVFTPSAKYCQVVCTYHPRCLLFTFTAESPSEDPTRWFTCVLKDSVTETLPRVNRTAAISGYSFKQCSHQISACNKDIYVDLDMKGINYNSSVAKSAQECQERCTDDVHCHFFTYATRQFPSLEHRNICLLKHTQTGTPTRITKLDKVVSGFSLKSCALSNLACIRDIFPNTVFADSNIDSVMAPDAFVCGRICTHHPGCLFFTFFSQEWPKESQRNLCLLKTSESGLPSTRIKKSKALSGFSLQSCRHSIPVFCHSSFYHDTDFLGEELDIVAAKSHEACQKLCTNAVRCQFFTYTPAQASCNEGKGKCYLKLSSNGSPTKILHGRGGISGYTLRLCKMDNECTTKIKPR
T1 sequence (P03952 391-638 limits assumed): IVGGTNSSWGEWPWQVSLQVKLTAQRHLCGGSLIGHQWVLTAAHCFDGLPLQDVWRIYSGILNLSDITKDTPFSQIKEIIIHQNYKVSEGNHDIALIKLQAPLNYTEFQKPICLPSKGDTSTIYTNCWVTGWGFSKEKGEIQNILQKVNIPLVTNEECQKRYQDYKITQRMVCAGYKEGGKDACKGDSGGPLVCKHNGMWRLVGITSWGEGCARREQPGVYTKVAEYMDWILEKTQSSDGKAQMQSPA
T1 sequence (P03952 20-390 partner limits assumed): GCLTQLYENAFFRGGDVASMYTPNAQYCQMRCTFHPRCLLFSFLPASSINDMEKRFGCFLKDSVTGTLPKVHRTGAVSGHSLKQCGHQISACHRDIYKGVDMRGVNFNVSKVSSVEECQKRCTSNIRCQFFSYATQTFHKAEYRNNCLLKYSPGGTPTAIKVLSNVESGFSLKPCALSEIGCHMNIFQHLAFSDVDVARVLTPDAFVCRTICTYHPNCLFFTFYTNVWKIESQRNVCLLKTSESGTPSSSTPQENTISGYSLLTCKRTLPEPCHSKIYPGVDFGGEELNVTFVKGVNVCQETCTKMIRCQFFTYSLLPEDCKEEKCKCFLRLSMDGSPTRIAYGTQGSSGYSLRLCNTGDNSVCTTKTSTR

As for `COc1cn(C(C[C@@H]2CCCCO2)C(=O)Nc2ccc(C(=O)O)s2)c(=O)cc1-c1cc(Cl)ccc1OCC(F)(F)F` (stereo partly drawn) [Example 72, 5-({2-{4-[5-Chloro-2-(2,2,2-trifluoroethoxy)phenyl]-5-methoxy-2-oxopyridin-1(2H)-yl}-3-[(2S)-tetrahydro-2H-pyran-2-yl]propanoyl}amino)thiophene-2-carboxylic acid], the pIC50 against human plasma kallikrein was 7.62; against human factor XIa, 8.80.
As for `COc1cn(C(Cc2ccn(C)n2)C(=O)Nc2ccc(C(N)=O)c(F)c2)c(=O)cc1-c1cc(Cl)ccc1OCC(F)(F)F` (racemic) [Example 16, 4-{[2-{4-[5-Chloro-2-(2,2,2-trifluoroethoxy)phenyl]-5-methoxy-2-oxopyridin-1 (2H)-yl}-3-(1-methyl-1H-pyrazol-3-yl)propanoyl]amino}-2-fluorobenzamide], the pIC50 on human plasma kallikrein is 7.17; at human factor XIa it was 8.00.
For `COc1cn(C(CCOC(F)(F)F)C(=O)Nc2ccc3nn(C)cc3c2)c(=O)cc1-c1cc(Cl)ccc1OCC(F)(F)F` (racemic) [Example 38, 2-{4-[5-Chloro-2-(2,2,2-trifluoroethoxy)phenyl]-5-methoxy-2-oxopyridin-1(2H)-yl}-N-(2-methyl-2H-indazol-5-yl)-4-(trifluoromethoxy)butanamide], in that order: 7.03 and 7.89.
Turning to `CCCC(C(=O)Nc1ccc(C(=O)O)cc1)n1cc(OC)c(-c2cc(Cl)ccc2OCC(F)(F)F)cc1=O` (racemic) [Example 67, 4-{[2-{4-[5-Chloro-2-(2,2,2-trifluoroethoxy)phenyl]-5-methoxy-2-oxopyridin-1(2H)-yl}pentanoyl]amino}benzoic acid], the negative-log IC50 (pIC50) is 6.85 on human plasma kallikrein and 8.55 against human factor XIa.
In the same order, the values of `CNC(=O)c1ccc(NC(=O)C(C[C@@H]2CCCCO2)n2cc(OC)c(-c3cc(Cl)ccc3OCC(F)(F)F)cc2=O)cn1` (stereo partly drawn) [Example 52, 5-[(2-{4-[5-Chloro-2-(2,2,2-trifluoroethoxy)phenyl]-5-methoxy-2-oxopyridin-1(2H)-yl}-3-[(2S)-tetrahydro-2H-pyran-2-yl]propanoyl)amino]-N-methylpyridine-2-carboxamide] are 7.09 and 8.29.
As for `COc1cn(C(CC2COCCO2)C(=O)Nc2ccc(C(=O)O)cc2)c(=O)cc1-c1cc(Cl)ccc1OCC(F)F` (stereo not drawn) [Example 29, 4-{[2-{4-[5-Chloro-2-(2,2-difluoroethoxy)phenyl]-5-methoxy-2-oxopyridin-1(2H)-yl}-3-(1,4-dioxan-2-yl)propanoyl]amino}benzoic acid], the negative-log IC50 (pIC50) at human plasma kallikrein is 7.10; at human factor XIa, 8.80.
Consider `COc1cn(C(Cc2ccn(C)n2)C(=O)Nc2ccc(C(=O)O)cc2)c(=O)cc1-c1cc(Cl)ccc1OCC(F)(F)F` (racemic) [Example 13, 4-{[2-{4-[5-Chloro-2-(2,2,2-trifluoroethoxy)phenyl]-5-methoxy-2-oxopyridin-1(2H)-yl}-3-(1-methyl-1H-pyrazol-3-yl)propanoyl]amino}benzoic acid], for which the negative logarithm of the IC50 (pIC50) against human plasma kallikrein is 7.85; against human factor XIa it was 8.89.
On to `COc1cn(C(CCOC(C)(C)C)C(=O)Nc2ccc3nn(C)cc3c2)c(=O)cc1-c1cc(Cl)ccc1OCC(F)(F)F` (racemic) [Example 9, 4-tert-Butoxy-2-{4-[5-chloro-2-(2,2,2-trifluoroethoxy)phenyl]-5-methoxy-2-oxopyridin-1(2H)-yl}-N-(2-methyl-2H-indazol-5-yl)butanamide], for which the values for the pIC50 on human plasma kallikrein and against human factor XIa were 7.24 and 7.85, respectively.
Consider `CNC(=O)c1ccc(NC(=O)C(C[C@H](C)OC)n2cc(OC)c(-c3cc(Cl)ccc3OCC(F)(F)F)cc2=O)cn1` (mixture of isomers) [Example 36, 5-{[(4S)-2-{4-[5-Chloro-2-(2,2,2-trifluoroethoxy)phenyl]-5-methoxy-2-oxopyridin-1(2H)-yl}-4-methoxypentanoyl]amino}-N-methylpyridine-2-carboxamide], for which the pIC50 was 7.15 against human plasma kallikrein and 8.21 at human factor XIa.
For `COc1cn(C(CC2COCCO2)C(=O)Nc2ccc(C(N)=O)nc2)c(=O)cc1-c1cc(Cl)ccc1OCCF` (stereo not drawn) [Example 45, 5-{[2-{4-[5-Chloro-2-(2-fluoroethoxy)phenyl]-5-methoxy-2-oxopyridin-1(2H)-yl}-3-(1,4-dioxan-2-yl)propanoyl]amino}pyridine-2-carboxamide], in that order: 6.55 and 7.85.
In the same order, the values of `CNC(=O)c1ccc(NC(=O)C(CCOC)n2cc(OC)c(-c3cc(Cl)ccc3OCC(F)(F)F)cc2=O)cc1F` (racemic) [Example 6, 4-[(2-{4-[5-Chloro-2-(2,2,2-trifluoroethoxy)phenyl]-5-methoxy-2-oxopyridin-1(2H)-yl}-4-methoxybutanoyl)amino]-2-fluoro-N-methylbenzamide] are 6.89 and 7.72.
Turning to `COc1cn(C(CC2COCCO2)C(=O)Nc2ccc(C(N)=O)c(F)c2)c(=O)cc1-c1cc(Cl)ccc1OCC(F)F` (stereo not drawn) [Example 32, 4-{[2-{4-[5-Chloro-2-(2,2-difluoroethoxy)phenyl]-5-methoxy-2-oxopyridin-1(2H)-yl}-3-(1,4-dioxan-2-yl)propanoyl]amino}-2-fluorobenzamide], the pIC50 against human plasma kallikrein is 6.80; at human factor XIa it was 8.01.
As to `COc1cn(C(C[C@H](C)OC)C(=O)Nc2ccc(C(N)=O)nc2)c(=O)cc1-c1cc(Cl)ccc1OCC(F)(F)F` (stereo partly drawn) [Example 56, 5-[[(4S)-2-[4-[5-Chloro-2-(2,2,2-trifluoroethoxy)phenyl]-5-methoxy-2-oxo-1-pyridyl]-4-methoxypentanoyl]amino]pyridine-2-carboxamide], the negative-log IC50 (pIC50) against human plasma kallikrein was 6.92; against human factor XIa, 8.15.
Take `CCCC(C(=O)Nc1ccc(C(N)=O)nc1)n1cc(OC)c(-c2cc(Cl)ccc2OCC(F)(F)F)cc1=O` (racemic) [Example 68, 5-{[2-{4-[5-Chloro-2-(2,2,2-trifluoroethoxy)phenyl]-5-methoxy-2-oxopyridin-1(2H)-yl}pentanoyl]amino}pyridine-2-carboxamide]: the negative logarithm of the IC50 (pIC50) at human plasma kallikrein was 6.60; on human factor XIa, 7.43.
As to `COc1cn(C(CCOC(C)(C)C)C(=O)Nc2ccc(C(=O)O)s2)c(=O)cc1-c1cc(Cl)ccc1OCC(F)(F)F` (racemic) [Example 75, 5-{[4-tert-Butoxy-2-{4-[5-chloro-2-(2,2,2-trifluoroethoxy)phenyl]-5-methoxy-2-oxopyridin-1(2H)-yl}butanoyl]amino}thiophene-2-carboxylic acid], the negative logarithm of the IC50 (pIC50) at human plasma kallikrein is 7.72; on human factor XIa, 8.60.
`CCNC(=O)c1ccc(NC(=O)C(CCOC2(C)CCC2)n2cc(OC)c(-c3cc(Cl)ccc3OCC(F)(F)F)cc2=O)cn1` (racemic) [Example 61, 5-[[2-[4-[5-Chloro-2-(2,2,2-trifluoroethoxy)phenyl]-5-methoxy-2-oxo-1-pyridyl]-4-(1-methylcyclobutoxy)butanoyl]amino]-N-ethylpyridine-2-carboxamide]: the negative logarithm of the IC50 (pIC50) was 6.82 at human plasma kallikrein and 7.37 on human factor XIa.
Turning to `CCCC(C(=O)Nc1ccc2nn(C)cc2c1)n1cc(OC)c(-c2cc(Cl)ccc2OCC(F)(F)F)cc1=O` (racemic) [Example 65, 2-{4-[5-Chloro-2-(2,2,2-trifluoroethoxy)phenyl]-5-methoxy-2-oxopyridin-1(2H)-yl}-N-(2-methyl-2H-indazol-5-yl)pentanamide], the negative logarithm of the IC50 (pIC50) was 6.85 against human plasma kallikrein and 7.40 against human factor XIa.
Consider `COc1cn(C(C[C@H](C)OC)C(=O)Nc2ccc3nn(C)cc3c2)c(=O)cc1-c1cc(Cl)ccc1OCC(F)(F)F` (mixture of isomers) [Example 37, (4S)-2-{4-[5-Chloro-2-(2,2,2-trifluoroethoxy)phenyl]-5-methoxy-2-oxopyridin-1(2H)-yl}-4-methoxy-N-(2-methyl-2H-indazol-5-yl)pentanamide], for which the negative logarithm of the IC50 (pIC50) against human plasma kallikrein is 7.14; against human factor XIa, 8.10.
